Read-outs that look alike come from different tables or passages of the source.
Assays:
Format in all cases: cell-based
human PC-3 cells = assay: Sulforhodamine B (SRB) assay, cytotoxicity against PC-3 cells; conditions: for IC50: Homo sapiens
Description: Add 5% Fetal Bovine Serum (FBS) to 96-well plate and fix the cells with 10% TCA after 24 hours of incubation and add the compound (T0). Add DMSO and culture for another 48 hours and the cells are fixed in 0.4% (W/V), 10% TCA and SRB, and […]. Excess SRB is washed off by 1% acetic acid and cells stained with SRB are dissolved in 10 mmol/L Trizma base. The absorbance is measured at 515 nm. The treatment time is 0 (T0), control growth (C) and the increase of the compound (Tx) in the cells are shown below and are used to calculate the increase of the concentration of the compound in percentage. Growth inhibition (GI %) is calculated using the following formula 100−[(TX−T0)/(C−T0)]×100. The 50% growth inhibition concentration (IC50) is used to confirm the concentration of compound and thus results in 50% reduction of the treated cells which control the amount of total protein.
This part of experimental results are SRB assays measuring cytotoxicity of the 26 synthesized compounds against human PC-3 cells and are summarized in Table 1 and 2.

CCRF-CEM = assay: cells; conditions: CCRF-CEM (Leukemia), 10 μM, 48 hours
HL-60 (TB) = assay: cells; conditions: HL-60 (TB) (Leukemia), 10 μM, 48 hours
A549/ATCC = assay: cells; conditions: A549/ATCC (Non-Small Cell Lung Cancer), 10 μM, 48 hours
HOP-62 = assay: cells; conditions: HOP-62 (Non-Small Cell Lung Cancer), 10 μM, 48 hours
NCI-H226 = assay: cells; conditions: NCI-H226 (Non-Small Cell Lung Cancer), 10 μM, 48 hours
HCC-2998 = assay: cells; conditions: HCC-2998 (Colon Cancer), 10 μM, 48 hours
HCT-116 = assay: cells; conditions: HCT-116 (Colon Cancer), 10 μM, 48 hours
HCT-15 = assay: cells; conditions: HCT-15 (Colon Cancer), 10 μM, 48 hours
HT29 = assay: cells; conditions: HT29 (Colon Cancer), 10 μM, 48 hours
KM12 = assay: cells; conditions: KM12 (Colon Cancer), 10 μM, 48 hours
SF-268 = assay: cells; conditions: SF-268 (CNS Cancer), 10 μM, 48 hours
SF-295 = assay: cells; conditions: SF-295 (CNS Cancer), 10 μM, 48 hours
SF-539 = assay: cells; conditions: SF-539 (CNS Cancer), 10 μM, 48 hours
U251 = assay: cells; conditions: U251 (CNS Cancer), 10 μM, 48 hours
MALME-3M = assay: cells; conditions: MALME-3M (Melanoma), 10 μM, 48 hours
MDA-MB-435 = assay: cells; conditions: MDA-MB-435 (Melanoma), 10 μM, 48 hours
SK-MEL-28 = assay: cells; conditions: SK-MEL-28 (Melanoma), 10 μM, 48 hours
UACC-257 = assay: cells; conditions: UACC-257 (Melanoma), 10 μM, 48 hours
UACC-62 = assay: cells; conditions: UACC-62 (Melanoma), 10 μM, 48 hours
IGROV1 = assay: cells; conditions: IGROV1 (Ovarian Cancer), 10 μM, 48 hours
NCI/ADR-RES = assay: cells; conditions: NCI/ADR-RES (Ovarian Cancer), 10 μM, 48 hours
A498 = assay: cells; conditions: A498 (Renal Cancer), 10 μM, 48 hours
CAKI-1 = assay: cells; conditions: CAKI-1 (Renal Cancer), 10 μM, 48 hours
DU-145 = assay: cells; conditions: DU-145 (Prostate Cancer), 10 μM, 48 hours
MCF7 = assay: cells; conditions: MCF7 (Breast Cancer), 10 μM, 48 hours
MDA-MB-231/ATCC = assay: cells; conditions: MDA-MB-231/ATCC (Breast Cancer), 10 μM, 48 hours
HS 578T = assay: cells; conditions: HS 578T (Breast Cancer), 10 μM, 48 hours
BT-549 = assay: cells; conditions: BT-549 (Breast Cancer), 10 μM, 48 hours
[1] = SRB assay, PC-3 cells, 48 hours, read-out: IC50

| Compound | growth percentage (CCRF-CEM) | growth percentage (HL-60 (TB)) | growth percentage (A549/ATCC) | growth percentage (HOP-62) | growth percentage (NCI-H226) | growth percentage (HCC-2998) | growth percentage (HCT-116) | growth percentage (HCT-15) | growth percentage (HT29) | growth percentage (KM12) | growth percentage (SF-268) | growth percentage (SF-539) | growth percentage (U251) | growth percentage (MALME-3M) | growth percentage (MDA-MB-435) | growth percentage (SK-MEL-28) | growth percentage (UACC-257) | growth percentage (UACC-62) | growth percentage (IGROV1) | growth percentage (NCI/ADR-RES) | further results |
| --- | --- | --- | --- | --- | --- | --- | --- | --- | --- | --- | --- | --- | --- | --- | --- | --- | --- | --- | --- | --- | --- |
| CNc1nc2ccccc2c2c1-c1ccc(Cl)cc1C2=O [SJ-1, 9-Chloro-6-(methylamino)-11H-indeno[1,2-c]quinolin-11-one] | 101.50% | 102.75% | 96.83% | 87.10% | 92.19% | 57.51% | 88.31% | 66.20% | 99.44% | 66.82% | 97.27% | 92.08% | 96.03% | 114.83% | 107.24% | 114.89% | 107.69% | 77.41% | 54.41% | 92.22% | Toxicity (%) (human PC-3 cells; SRB assay, PC-3 cells): 52.8%; GI % (10 μM) (human PC-3 cells; SRB assay, PC-3 cells, 10 μM): 100%; growth percentage (SF-295): 95.71%; growth percentage (A498): 82.03%; growth percentage (CAKI-1): 73.84%; growth percentage (DU-145): 106.88%; growth percentage (MCF7): 5.24%; growth percentage (MDA-MB-231/ATCC): 83.87%; growth percentage (HS 578T): 85.28%; growth percentage (BT-549): 101.88% |
| CN(C)c1nc2ccccc2c2c1-c1ccc(Cl)cc1C2=O [SJ-2, 9-Chloro-6-(dimethylamino)-11H-indeno[1,2-c]quinolin-11-one] | 92.13% | 95.49% | 98.85% | 78.02% | 84.79% | 81.50% | 98.57% | 80.49% | 94.89% | 94.44% | 100.26% | 87.80% | 98.98% | 111.50% | 97.33% | 113.43% | 101.11% | 78.16% | 83.38% | 92.57% | IC50 (human PC-3 cells; PC-3, 48 h): 4.34 µM; growth percentage (SF-295): 93.22%; growth percentage (A498): 96.00%; growth percentage (CAKI-1): 84.65%; growth percentage (DU-145): 106.50%; growth percentage (MCF7): 23.99%; growth percentage (MDA-MB-231/ATCC): 76.68%; growth percentage (HS 578T): 72.84%; growth percentage (BT-549): 102.55% |
| O=C1c2cc(Cl)ccc2-c2c(SCCO)nc3ccccc3c21 [SJ-25, 6-(2-Hydroxyethylthio)-9-chloro-11H-indeno[1,2-c]quinolin-11-one] | 71.56% | 91.75% | 76.42% | 91.46% | 80.52% | 96.27% | 77.94% | 80.10% | 84.03% | 84.62% | 96.53% | 100.05% | 78.04% | 107.23% | 95.15% | 86.90% | 106.91% | 84.47% | 69.73% | 73.58% | IC50 (human PC-3 cells; [1]): > 10 µM; growth percentage (SF-295): 73.28%; growth percentage (CAKI-1): 41.86%; growth percentage (DU-145): 92.27%; growth percentage (MCF7): 67.82%; growth percentage (MDA-MB-231/ATCC): 72.56%; growth percentage (HS 578T): 58.28%; growth percentage (BT-549): 92.88% |
| COc1nc2ccccc2c2c1-c1ccc(Cl)cc1C2=O [SJ-27, 6-Methoxy-9-chloro-11H-indeno[1,2-c]quinolin-11-one] | 89.25% | 108.77% | 99.70% | 96.01% | 89.22% | 104.46% | 88.60% | 94.98% | 111.60% | 98.35% | 113.64% | 91.49% | 97.67% | 107.54% | 100.31% | 106.24% | 98.20% | 74.08% | 96.92% | 94.29% | growth percentage (A498): 93.51%; growth percentage (CAKI-1): 90.65%; growth percentage (DU-145): 121.06%; growth percentage (MCF7): 71.98%; growth percentage (MDA-MB-231/ATCC): 74.61%; growth percentage (HS 578T): 92.74%; growth percentage (BT-549): 92.95% |
| O=C1c2cc(Cl)ccc2-c2c(Cl)nc3ccccc3c21 [TC-XCl-1, 6,9-Dichloro-11H-indeno[1,2-c]quinolin-11-one] | 64.86% | 102.00% | 108.98% | 94.89% | 91.86% | 98.52% | 105.87% | 114.88% | 104.27% | 111.92% | 117.27% | 110.08% | 100.63% | 102.06% | 100.46% | 90.08% | 127.99% | 94.45% | 92.82% | 96.78% | IC50 (human PC-3 cells; [1]): > 15 µM; growth percentage (SF-295): 92.80%; growth percentage (CAKI-1): 75.67%; growth percentage (DU-145): 113.91%; growth percentage (MCF7): 74.25%; growth percentage (MDA-MB-231/ATCC): 87.66%; growth percentage (HS 578T): 91.01%; growth percentage (BT-549): 119.62% |
